Source: publication PMC12811658, “Design, Synthesis, and Structural Evolution of Pseudo‐Natural Product IDO1 Inhibitors and Degraders” (Angewandte Chemie (International Ed. in English), 2025)

Assays:
[1] = Pharmacokinetics of iDeg-6; type: in vivo, male C57Bl/6 mice; details: male, C57Bl/6, mouse, plasma
Protocol: In vivo pharmacology characterization was carried out at Pharmacelsus GmbH, Saarbrücken, Germany, using male C57Bl/6 mice. Food and water was provided ad libitum before and during each study. All experimental procedures were approved by and conducted in accordance with the regulations of the local Animal Welfare Authorities. Plasma samples were analysed by liquid chromatography tandem-mass spectrometry using a generic method. Pharmacokinetic parameters were calculated by non-compartmental analysis. […] Up to 120 mg/kg PO and 30 mg/kg IP no clinical signs were observed. […] Due to the larger plasma exposure of iDeg-6 the IP route was selected for efficacy studies.

C57Bl/6 mice = test: Tolerability (dose escalation PO and IP); type: in vivo, male C57Bl/6 mice; details: for dose up to which no clinical signs were observed: dose escalation over 3-5 days
SKOV-3 tumor = test: SKOV-3 tumor-bearing mouse model; type: in vivo, NSG immunodeficient mice; details: 30 mg kg−1 IP twice daily
Protocol: Incubation at 37 °C for 3 h. Representative data for n = 3. c) Time‐course of heme displacement from IDO1 detected by the absorbance at the Soret peak (404 nm) as a function of time. […] All curves were fit using a one‐site model with N = 1 and defined IDO1 concentration. Left plots show baseline corrected data, while right plots show integrated binding isotherms versus iDegs/IDO1 ratio. IDO1 protein (125 µM) was titrated into the stirred sample cell containing iDegs (25 µM, except for iDeg‐8 at 50 µM). Representative data for n = 3, except for iDeg‐9 (n = 2). g)–i) In vivo activity of iDeg‐6. NSG immunodeficient mice were injected with SKOV‐3 cells. Mice were treated with 18 intraperitoneal injections of iDeg‐6 (30 mg kg^−1) or vehicle. The pharmacological treatment was twice daily. Tumor volume was determined weekly by digital caliper. g) SKOV‐3 tumor growth curves in iDeg‐6‐treated mice (n = 12, green lines) or vehicle‐treated mice (n = 13, gray lines). Statistical analysis was performed by two‐way ANOVA: ****p < 0.001. h) Body weight changes during treatment window (mean values ± range). i) Survival data are shown by Kaplan‐Meier survival analysis. Mantel–Haenszel statistical analysis: p < 0.0001).
The limited clinical efficacy of IDO1 inhibitors is likely due in part to its non‐enzymatic functions that are not targeted by catalytic inhibition.^[ [32], [33], [34], [35], [36], [37], [38] ^] […] SKOV‐3 cells were subsequently engrafted into NSG immunodeficient mice to establish a SKOV‐3 tumor‐bearing model (Figure S11a). Mice were treated with iDeg‐6 at a dose of 30 mg kg^−1, administered twice daily for 18 days.
NSG female mice (NOD.Cg-PrkdcSCIDIl2rgtm1Wjl/SzJ) were purchased from Charles River (Calco, Italia) with 10 weeks age. […] Tumor volume was determined weekly by digital caliper from 10 days after tumor challenging to the endpoint of the experiment (day 80). […] All animal experiments were under the Amsterdam Protocol on animal protection and welfare: mice were monitored daily and euthanized when displaying excessive discomfort.

[2] = system: IDO1 mRNA levels in SKOV-3 cells; test: RT-qPCR of IDO1 expression; type: cell-based; details: 24 h
Protocol: a, IDO1 mRNA levels in SKOV-3 cells.
To assess IDO1 gene expression in the SKOV3 cell line, SKOV3 cells were seeded into 24-well plates. After 24 h, the cells were treated with the indicated concentrations of compounds, followed by an additional 24 h incubation.

[3] = biological target: IDO1 protein levels in BxPC3 cells (Homo sapiens, UniProt P14902); test: IDO1 immunoblotting (degradation); type: cell-based; set-up: endogenous in cells; host or cells: BxPC3 (DSMZ), IFN-γ stimulated; details: 24 h incubation, mean ± SD
recombinant human IDO1 = biological target: T1, recombinant human IDO1 (Homo sapiens, UniProt P14902); test: IDO1 enzymatic assay in vitro; type: biochemical; details: at 14 µM; pre-incubation 37 °C 45 min; mean ± SD
T1 construct: The GST-tag of IDO1 was removed to obtain untagged full-length IDO1l using PreScission protease; GST (N, cleaved yes); made in house; own inference

[4] = system: Kyn levels in BxPC3 cells (kynurenine generated by IDO1); test: Cellular Kyn assay (automated Kyn screening assay); type: cell-based; details: Homo sapiens, BXPC-3, 48 h, IFN-γ, L-Trp and compounds 48 h, mean ± SD, read-out: IC50 (Kyn assay), reduction of kynurenine levels

IDO1 protein levels in BxPC3 cells, sequence (P14902 whole entry): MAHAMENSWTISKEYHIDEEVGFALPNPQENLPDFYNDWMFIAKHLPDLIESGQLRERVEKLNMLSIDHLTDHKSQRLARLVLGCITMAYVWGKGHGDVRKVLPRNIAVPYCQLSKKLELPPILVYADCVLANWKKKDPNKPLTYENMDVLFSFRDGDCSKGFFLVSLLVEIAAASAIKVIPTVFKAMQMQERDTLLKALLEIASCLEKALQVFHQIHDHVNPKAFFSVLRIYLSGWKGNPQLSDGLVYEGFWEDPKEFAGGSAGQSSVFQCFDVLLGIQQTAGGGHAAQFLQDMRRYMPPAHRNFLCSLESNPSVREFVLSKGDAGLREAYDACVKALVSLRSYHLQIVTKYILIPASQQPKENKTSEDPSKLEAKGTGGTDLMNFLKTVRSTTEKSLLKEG
T1 sequence (P14902 whole entry): as above

Question: Which AUC(0-inf) ([1]; 1 mg/kg IV) does the source give for `C#Cc1ccc(NC(=O)OC[C@]23CN(S(=O)(=O)c4ccc(C(C)(C)C)cc4C)C[C@H]2C[C@H]2C[C@@H]3C2(C)C)cc1` [98 (iDeg-6), ((3aS,4R,6R,7aS)-2-((4-(tert-butyl)-2-methylphenyl)sulfonyl)-5,5-dimethyloctahydro-3aH-4,6-methanoisoindol-3a-yl)methyl (4-ethynylphenyl)carbamate] here?
Answer: Its AUC(0-inf) is 414 ng·h/mL.

Question: What about the C0 ([1]; 1 mg/kg IV) of the same compound?
Answer: Its C0 is 1120 ng/mL.

Question: What about the clearance ([1]; 1 mg/kg IV) of the same compound?
Answer: The clearance was 40.3 mL/min/kg.

Question: And the half-life ([1]; 1 mg/kg IV)?
Answer: The half-life was 1.1 h.

Question: What about the Vd ([1]; 1 mg/kg IV, read-out: Vz) of the same compound?
Answer: The Vd was 3.82 L/kg.

Question: And the AUC(0-inf) ([1]; 30 mg/kg IP)?
Answer: Its AUC(0-inf) is 7040 ng·h/mL.

Question: What about the Cmax ([1]; 30 mg/kg IP) of the same compound?
Answer: Its Cmax is 872 ng/mL.

Question: And the bioavailability ([1]; 30 mg/kg IP)?
Answer: Its bioavailability is 57%.

Question: What about the half-life ([1]; 30 mg/kg IP) of the same compound?
Answer: The half-life was 4 h.

Question: What about the “clinical signs (in words)” value (C57Bl/6 mice; 60 mg/kg IP, individual animals, shortly after administration) of the same compound?
Answer: The value was “piloerection, subdued behavior”.

Question: What about the “dose up to which no clinical signs were observed” value (C57Bl/6 mice; IP) of the same compound?
Answer: Its value is at most 30 mg/kg.

Question: What about the “dose up to which no clinical signs were observed” value (C57Bl/6 mice; PO) of the same compound?
Answer: The value was “Up to 120 mg/kg”.

Question: And the “tolerability (in words)” value (C57Bl/6 mice; up to 30 mg kg−1 IP, no clinical signs)?
Answer: Its value is “well tolerated”.

Question: What about the “body weight (in words)” value (SKOV-3 tumor) of the same compound?
Answer: The value was “no significantly negative impact on body weight”.

Question: What about the “overall survival (in words)” value (SKOV-3 tumor; Kaplan-Meier) of the same compound?
Answer: Its value is “significantly improved the overall survival time”.

Question: And the “tumor growth (in words)” value (SKOV-3 tumor; p < 0.001 vs control)?
Answer: The value was “significant inhibition of tumor growth”.

Question: And the “IDO1 transcription (in words)” value [2]?
Answer: The value was “without affecting its transcription”.

Question: What about the “Max. degradation (%)” value ([3]; 10 nM) of the same compound?
Answer: Its value is 61 ± 12 (5) %.

Question: What about the “Max. degradation (%)” value ([3]; 100 nM) of the same compound?
Answer: The value was 74 ± 13 (5) %.

Question: What about the inhibition at 14 µM (recombinant human IDO1) of the same compound?
Answer: Its inhibition at 14 µM is 40 ± 7%.

Question: And the IC50 [4]?
Answer: The IC50 was 14 ± 3 nM.
